Experimental data published in publication PMC13185819, “De Novo Multi‐Mechanism Antimicrobial Peptide Design via Multimodal Deep Learning” (Advanced Science, 2026).
≈ marks a conversion by molar mass, not a printed value. Residues, ends and D or L forms follow the SMILES beside them.

Legend:
Format in all cases: cell-based
P. aeruginosa 119 = system: P. aeruginosa 119
Experimental: (§1) Standard strains included S. aureus ATCC33592, S. aureus CICC25138, and Salmonella enterica ATCC14028, which were purchased from the China Center of Industrial Culture Collection (CICC). Standard strains including E.coli CMCC44102, Salmonella enterica CMCC50071, and S. aureus CMCC26003 were purchased from the National Center for Medical Culture Collections (CMCC). […] All experiments using the above strains were carried out in a BSL‐2 laboratory. The clinical laboratory of Qilu Hospital detected bacterial resistance to various antibiotics. All strains were streaked on Nutrient Broth (NB) agar medium and incubated overnight at 37°C.
(§2) The antimicrobial activity of the peptides was examined in sterile 96‐well plates using the broth microdilution according to the CLSI standard. The colonies were suspended in saline solution, the turbidity was adjusted to McFarland 0.5 to reach a bacterial concentration of 10^8 CFU/mL, and again diluted 100 times for the inhibition test. Then, 50 µL of bacterial suspension at 1 × 10^6 CFU/mL was incubated with the same volume of different concentrations of peptide solution [serial twofold dilutions in Mueller–Hinton Broth (Hopebio)]. […] All experiments were performed with three independent replicates.

E. faecium 21 = system: E. faecium 21
Experimental: as §1, §2

S. aureus CMCC26003 = system: S. aureus CMCC26003
Experimental: as §1, §2

P. aeruginosa 116 = system: P. aeruginosa 116
Experimental: as §1, §2

S. aureus CICC25138 = system: S. aureus CICC25138
Experimental: as §1, §2

S. aureus 129 = system: S. aureus 129
Experimental: as §1, §2

E.coli CMCC44102 = system: E.coli CMCC44102
Experimental: as §1, §2

E.coli 110 = system: E.coli 110
Experimental: as §1, §2

S. aureus ATCC33592 = system: S. aureus ATCC33592
Experimental: as §1, §2

P. aeruginosa 112 = system: P. aeruginosa 112
Experimental: as §1, §2

S. aureus 103 = system: S. aureus 103
Experimental: as §1, §2

E.coli 208 = system: E.coli 208
Experimental: as §1, §2

K. pneumoniae 7713 = system: K. pneumoniae 7713
Experimental: as §1, §2

E. faecium 1042 = system: E. faecium 1042
Experimental: as §1, §2

Row | SMILES | MIC (μg/mL) P. aeruginosa 119 (P. aeruginosa 119) [µg/mL] | MIC (μg/mL) E. faecium 21 (E. faecium 21) [µg/mL] | MIC (μg/mL) S. aureus CMCC26003 (S. aureus CMCC26003) [µg/mL] | MIC (μg/mL) P. aeruginosa 116 (P. aeruginosa 116) [µg/mL] | MIC (μg/mL) S. aureus CICC25138 (S. aureus CICC25138) [µg/mL] | MIC (μg/mL) S. aureus 129 (S. aureus 129) [µg/mL] | MIC (μg/mL) E.coli CMCC44102 (E.coli CMCC44102) [µg/mL] | MIC (μg/mL) E.coli 110 (E.coli 110) [µg/mL] | MIC (μg/mL) S. aureus ATCC33592 (S. aureus ATCC33592) [µg/mL] | MIC (μg/mL) P. aeruginosa 112 (P. aeruginosa 112) [µg/mL] | MIC (μg/mL) S. aureus 103 (S. aureus 103) [µg/mL] | MIC (μg/mL) E.coli 208 (E.coli 208) [µg/mL] | MIC (μg/mL) K. pneumoniae 7713 (K. pneumoniae 7713) [µg/mL] | MIC (μg/mL) E. faecium 1042 (E. faecium 1042) [µg/mL]
1 | CC(C)C[C@H](NC(=O)[C@H](Cc1ccccc1)NC(=O)[C@H](CCCCN)NC(=O)[C@H](Cc1c[nH]c2ccccc12)NC(=O)[C@H](Cc1c[nH]c2ccccc12)NC(=O)[C@@H]1CCCN1C(=O)[C@H](CCCNC(=N)N)NC(=O)[C@@H](NC(=O)[C@H](Cc1ccccc1)NC(=O)[C@H](CCCCN)NC(=O)[C@H](CCCNC(=N)N)NC(=O)[C@H](Cc1c[nH]c2ccccc12)NC(=O)[C@H](CCCNC(=N)N)NC(=O)[C@H](CCCCN)NC(=O)[C@H](Cc1ccc(O)cc1)NC(=O)[C@H](CCC(N)=O)NC(=O)[C@@H](N)CCCNC(=N)N)C(C)C)C(=O)N[C@@H](CCCCN)C(=O)N[C@@H](CC(=O)O)C(N)=O [QLX-3DV-14] (H-RQYKRWRKFVRPWWKFLKD-NH2) | 128 (≈ 47 µM) | 8 (≈ 2.94 µM) | 8 (≈ 2.94 µM) | 32 (≈ 11.8 µM) | 32 (≈ 11.8 µM) | 16 (≈ 5.88 µM) | 4 (≈ 1.47 µM) | 8 (≈ 2.94 µM) | 8 (≈ 2.94 µM) | 4 (≈ 1.47 µM) | 8 (≈ 2.94 µM) | 16 (≈ 5.88 µM) | – | –
2 | CC[C@H](C)[C@H](NC(=O)[C@@H](NC(=O)[C@@H](N)CCCCN)C(C)C)C(=O)N[C@@H](CC(N)=O)C(=O)N[C@@H](Cc1ccc(O)cc1)C(=O)N[C@@H](CCCCN)C(=O)N[C@@H](CC(C)C)C(=O)N[C@@H](CCCNC(=N)N)C(=O)N[C@@H](Cc1ccccc1)C(=O)N[C@@H](Cc1ccccc1)C(=O)N[C@@H](Cc1c[nH]c2ccccc12)C(=O)N[C@@H](C)C(=O)N1CCC[C@H]1C(=O)N[C@@H](Cc1c[nH]c2ccccc12)C(=O)N[C@@H](Cc1ccccc1)C(=O)N[C@@H](CCCCN)C(=O)N[C@@H](CCCCN)C(=O)N[C@@H](CC(C)C)C(N)=O [QLX-3DV-15] (H-KVINYKLRFFWAPWFKKL-NH2) | 64 (≈ 26.8 µM) | 4 (≈ 1.68 µM) | 4 (≈ 1.68 µM) | 32 (≈ 13.4 µM) | 16 (≈ 6.71 µM) | 8 (≈ 3.36 µM) | 8 (≈ 3.36 µM) | 8 (≈ 3.36 µM) | 16 (≈ 6.71 µM) | 4 (≈ 1.68 µM) | 16 (≈ 6.71 µM) | 4 (≈ 1.68 µM) | 64 (≈ 26.8 µM) | 4 (≈ 1.68 µM)
3 | CC[C@H](C)[C@H](NC(=O)[C@H](CC(C)C)NC(=O)[C@H](C)NC(=O)[C@H](CCCNC(=N)N)NC(=O)[C@@H](N)CCCNC(=N)N)C(=O)N[C@@H](Cc1ccc(O)cc1)C(=O)N[C@@H](CC(N)=O)C(=O)N[C@@H](CC(C)C)C(=O)N[C@H](C(=O)N[C@@H](CCCCN)C(=O)N[C@@H](CCCCN)C(=O)N[C@@H](Cc1c[nH]c2ccccc12)C(=O)N[C@@H](C)C(=O)N[C@@H](Cc1ccc(O)cc1)C(=O)N[C@@H](CO)C(=O)N[C@@H](Cc1ccc(O)cc1)C(=O)N[C@@H](CO)C(=O)N[C@@H](C)C(=O)N[C@H](C(N)=O)[C@@H](C)O)C(C)C [QLX-3DV-16] (H-RRALIYNLVKKWAYSYSAT-NH2) | 128 (≈ 55.6 µM) | 8 (≈ 3.47 µM) | 4 (≈ 1.74 µM) | 16 (≈ 6.95 µM) | 128 (≈ 55.6 µM) | 128 (≈ 55.6 µM) | 4 (≈ 1.74 µM) | 8 (≈ 3.47 µM) | 128 (≈ 55.6 µM) | 16 (≈ 6.95 µM) | 64 (≈ 27.8 µM) | 16 (≈ 6.95 µM) | 16 (≈ 6.95 µM) | 16 (≈ 6.95 µM)
4 | CC[C@H](C)[C@H](N)C(=O)N[C@H](C(=O)N[C@H](C(=O)N[C@@H](CCCNC(=N)N)C(=O)N[C@@H](Cc1ccccc1)C(=O)N[C@@H](CC(C)C)C(=O)N[C@@H](CCCCN)C(=O)N1CCC[C@H]1C(=O)N[C@@H](CCCCN)C(=O)N[C@@H](CC(C)C)C(=O)N[C@@H](CC(C)C)C(=O)N[C@@H](CCCCN)C(=O)N[C@@H](C)C(=O)N[C@@H](CC(C)C)C(=O)N[C@@H](CCCCN)C(N)=O)[C@@H](C)CC)C(C)C [QLX-3DV-19] (H-IVIRFLKPKLLKALK-NH2) | 128 (≈ 71.9 µM) | 16 (≈ 8.99 µM) | 4 (≈ 2.25 µM) | 32 (≈ 18 µM) | 128 (≈ 71.9 µM) | 128 (≈ 71.9 µM) | 16 (≈ 8.99 µM) | 8 (≈ 4.5 µM) | 128 (≈ 71.9 µM) | 16 (≈ 8.99 µM) | 64 (≈ 36 µM) | 32 (≈ 18 µM) | 32 (≈ 18 µM) | –
